Test results taken from article PMC7238241, “Lack of Correlation between In Vitro and In Vivo Studies on the Inhibitory Effects of (‒)-Sophoranone on CYP2C9 Is Attributable to Low Oral Absorption and Extensive Plasma Protein Binding of (‒)-Sophoranone” (Pharmaceutics, 2020).
Where two headings read alike, the source gives them in different places.

Tests used:
Format in all cases: biochemical
CYP2E1 = molecular target: T1, CYP2E1 (Homo sapiens, UniProt P05181); assay: Reversible CYP2E1 inhibition, cocktail assay (chlorzoxazone 6-hydroxylase) in human liver microsomes
T1 construct: tissue Corning Life Sciences; host or cells: pooled human liver microsomes, 150 donors
Procedure: (§1) The inhibitory effects of SPN on CYP1A2, CYP2A6, CYP2B6, CYP2C8, CYP2C9, CYP2C19, CYP2D6, CYP2E1, and CYP3A4 were evaluated in pooled human liver microsomes through the use of specific CYP probe substrates (cocktail assay), as previously described with a slight modification. Concentrations of each CYP probe in Table 1 were used close to their reported Km values.
Briefly, a 90-µL incubation mixture, including pooled human liver microsomes (final concentration 0.1 mg/mL), 50 mM phosphate buffer (pH 7.4), each CYP-probe substrate cocktail set, and SPN (0–50 μM), was pre-incubated for 5 min at 37 °C. SPN was dissolved in methanol and spiked into the incubation mixture to a final concentration of 0.5% methanol. All P450-selective substrates (except coumarin due to solubility) were dissolved in methanol and serially diluted with methanol to the required concentrations, and the organic solvent was subsequently evaporated under a gentle stream of N2 gas to minimize the effects of organic solvents on CYP activities. On the other hand, coumarin dissolved in 50 mM phosphate buffer (pH 7.4) was directly added into the mixed tube. The reaction was initiated by adding 10-µL aliquot of NADPH-generating system (1.3 mM NADP^+, 3.3 mM glucose 6-phosphate, 3.3 mM MgCl2, and 0.4 unit/mL glucose-6-phosphate dehydrogenase) before 15 min incubation at 37 °C in a shaking water bath. […]
(§2) The IC50 values were calculated via nonlinear least-squares regression analysis from logarithmic plots of inhibitor concentration versus percentage of activity remaining after inhibition, using SigmaPlot (ver. 14.0; Systat Software Inc, Chicago, IL, USA). The Ki values were determined from the equations for a single substrate single inhibitor model and the software available in the SigmaPlot Enzyme Kinetics module. Competitive, non-competitive, uncompetitive, or mixed inhibition models were evaluated and ranked according to the best fit based on Akaike Information Criterion (AIC) values. […]

CYP2B6 = molecular target: T2, CYP2B6 (Homo sapiens, UniProt P20813); assay: Reversible CYP2B6 inhibition, cocktail assay (bupropion hydroxylase) in human liver microsomes
T2 construct: tissue Corning Life Sciences; host or cells: pooled human liver microsomes, 150 donors
T2 sequence (P20813 1-491): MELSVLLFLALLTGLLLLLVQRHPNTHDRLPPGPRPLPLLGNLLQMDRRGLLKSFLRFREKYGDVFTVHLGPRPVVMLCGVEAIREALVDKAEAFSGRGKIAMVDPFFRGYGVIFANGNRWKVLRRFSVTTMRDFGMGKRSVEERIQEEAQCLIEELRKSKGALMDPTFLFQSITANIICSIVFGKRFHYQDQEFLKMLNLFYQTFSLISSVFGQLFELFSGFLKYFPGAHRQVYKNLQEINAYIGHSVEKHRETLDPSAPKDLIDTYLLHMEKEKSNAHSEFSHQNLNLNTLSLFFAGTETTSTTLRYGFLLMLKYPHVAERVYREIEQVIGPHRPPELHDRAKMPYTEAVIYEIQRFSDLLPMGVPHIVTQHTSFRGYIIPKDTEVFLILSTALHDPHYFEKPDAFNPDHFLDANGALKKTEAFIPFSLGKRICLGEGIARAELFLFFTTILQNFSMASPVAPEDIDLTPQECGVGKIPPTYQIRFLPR
Procedure: as §1
(§3) Briefly, a 90-µL incubation mixture, including pooled human liver microsomes (final concentration 0.1 mg/mL), 50 mM phosphate buffer (pH 7.4), each CYP-probe substrate cocktail set, and SPN (0–50 μM), was pre-incubated for 5 min at 37 °C. SPN was dissolved in methanol and spiked into the incubation mixture to a final concentration of 0.5% methanol. […]
as §2

CYP2C8 = molecular target: T3, CYP2C8 (Homo sapiens, UniProt P10632); assay: Reversible CYP2C8 inhibition, cocktail assay (rosiglitazone p-hydroxylase) in human liver microsomes; conditions: human liver microsomes 0.1 mg/mL, rosiglitazone probe, n = 3
T3 construct: tissue Corning Life Sciences; host or cells: pooled human liver microsomes, 150 donors
T3 sequence (P10632 1-490): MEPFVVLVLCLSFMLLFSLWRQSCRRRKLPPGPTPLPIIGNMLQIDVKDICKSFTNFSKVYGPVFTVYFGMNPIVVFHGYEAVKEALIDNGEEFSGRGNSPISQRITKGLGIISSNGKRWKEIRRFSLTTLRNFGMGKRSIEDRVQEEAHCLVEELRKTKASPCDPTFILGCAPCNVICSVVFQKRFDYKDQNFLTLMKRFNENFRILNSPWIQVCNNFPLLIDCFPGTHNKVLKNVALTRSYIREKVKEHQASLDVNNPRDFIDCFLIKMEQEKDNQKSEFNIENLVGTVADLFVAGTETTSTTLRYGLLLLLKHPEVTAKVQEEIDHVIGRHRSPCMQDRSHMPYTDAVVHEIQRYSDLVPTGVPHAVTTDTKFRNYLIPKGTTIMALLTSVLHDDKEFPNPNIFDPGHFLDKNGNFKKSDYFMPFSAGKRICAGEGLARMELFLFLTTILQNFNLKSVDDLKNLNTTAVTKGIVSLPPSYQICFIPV
Procedure: as §1, §3, §2

CYP2C9 = molecular target: T4, CYP2C9 (Homo sapiens, UniProt P11712); assay: Determination of Ki and inhibition type on CYP2C9 activity in human liver microsomes; conditions: for Ki: human liver microsomes, n = 3
T4 construct: tissue Corning Life Sciences; host or cells: pooled human liver microsomes, 150 donors
Procedure: Based on the IC50 values, the Ki values of SPN on CYP2C9 activity were determined. […] Other procedures were similar to those of the reversible inhibition studies. All incubations were performed in triplicate, and the data are shown as the mean ± standard deviation.
The IC50 values were calculated via nonlinear least-squares regression analysis from logarithmic plots of inhibitor concentration versus percentage of activity remaining after inhibition, using SigmaPlot (ver. 14.0; Systat Software Inc, Chicago, IL, USA). The Ki values were determined from the equations for a single substrate single inhibitor model and the software available in the SigmaPlot Enzyme Kinetics module. Competitive, non-competitive, uncompetitive, or mixed inhibition models were evaluated and ranked according to the best fit based on Akaike Information Criterion (AIC) values. For visual inspection, the data were presented as Dixon plots.

CYP3A4 = molecular target: T5, CYP3A4 (Homo sapiens, UniProt P08684); assay: Reversible CYP3A4 inhibition, cocktail assay (midazolam 1′-hydroxylase) in human liver microsomes; conditions: midazolam probe
T5 construct: tissue Corning Life Sciences; host or cells: pooled human liver microsomes, 150 donors
Procedure: as §1, §3, §2

[1] = at the highest tested concentration (50 μM)

T4 sequence (P11712 whole entry): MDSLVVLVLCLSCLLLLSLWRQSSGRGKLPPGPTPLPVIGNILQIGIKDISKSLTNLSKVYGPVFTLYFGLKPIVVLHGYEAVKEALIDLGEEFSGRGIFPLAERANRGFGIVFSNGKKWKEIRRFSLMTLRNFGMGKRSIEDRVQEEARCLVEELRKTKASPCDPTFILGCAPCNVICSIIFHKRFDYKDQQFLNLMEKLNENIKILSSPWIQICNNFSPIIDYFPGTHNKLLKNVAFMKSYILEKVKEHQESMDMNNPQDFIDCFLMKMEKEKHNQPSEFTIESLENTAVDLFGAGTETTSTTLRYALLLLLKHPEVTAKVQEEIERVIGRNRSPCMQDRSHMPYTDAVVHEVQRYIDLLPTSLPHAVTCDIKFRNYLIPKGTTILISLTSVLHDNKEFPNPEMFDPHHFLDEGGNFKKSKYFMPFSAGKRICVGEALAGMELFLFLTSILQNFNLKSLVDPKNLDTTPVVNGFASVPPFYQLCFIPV
T5 sequence (P08684 whole entry): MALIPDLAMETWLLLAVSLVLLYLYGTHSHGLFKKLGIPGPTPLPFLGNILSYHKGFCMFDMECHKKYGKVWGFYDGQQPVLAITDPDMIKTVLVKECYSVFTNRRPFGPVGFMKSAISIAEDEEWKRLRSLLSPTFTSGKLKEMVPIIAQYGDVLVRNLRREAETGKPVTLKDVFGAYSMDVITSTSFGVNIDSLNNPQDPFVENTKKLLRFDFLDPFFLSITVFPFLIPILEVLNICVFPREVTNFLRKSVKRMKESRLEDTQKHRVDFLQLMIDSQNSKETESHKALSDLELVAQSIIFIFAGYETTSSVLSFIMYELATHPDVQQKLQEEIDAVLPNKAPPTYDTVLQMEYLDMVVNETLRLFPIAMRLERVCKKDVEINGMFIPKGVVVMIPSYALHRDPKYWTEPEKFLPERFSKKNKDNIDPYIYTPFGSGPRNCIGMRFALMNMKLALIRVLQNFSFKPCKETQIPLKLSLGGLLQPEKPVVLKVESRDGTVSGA
T1 sequence (P05181 whole entry): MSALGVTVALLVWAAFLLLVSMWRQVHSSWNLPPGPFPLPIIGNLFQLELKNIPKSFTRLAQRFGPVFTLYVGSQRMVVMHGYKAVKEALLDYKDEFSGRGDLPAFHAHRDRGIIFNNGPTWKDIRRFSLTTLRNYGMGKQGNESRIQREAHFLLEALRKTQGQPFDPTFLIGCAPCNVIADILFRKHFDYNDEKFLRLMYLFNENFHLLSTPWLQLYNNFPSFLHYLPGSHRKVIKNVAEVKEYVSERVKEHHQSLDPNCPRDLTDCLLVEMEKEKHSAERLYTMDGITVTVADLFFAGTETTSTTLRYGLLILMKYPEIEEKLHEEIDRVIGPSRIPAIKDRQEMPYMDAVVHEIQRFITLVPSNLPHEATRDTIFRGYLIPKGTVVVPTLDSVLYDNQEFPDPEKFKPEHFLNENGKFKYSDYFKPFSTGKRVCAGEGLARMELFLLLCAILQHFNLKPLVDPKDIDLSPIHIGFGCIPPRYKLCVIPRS

CC(C)=CCc1cc([C@@H]2CC(=O)c3ccc(O)c(CC=C(C)C)c3O2)cc(CC=C(C)C)c1O [SPN, (‒)-Sophoranone]
residual enzyme activity, CYP2E1 (CYP2E1; [1]): greater than 80% | IC50 (CYP2E1; human liver microsomes 0.1 mg/mL, cocktail assay, chlorzoxazone probe, n = 3, read-out: IC50 Values, CYP2E1): > 50 µM | residual enzyme activity, CYP2B6 (CYP2B6; [1]): greater than 80% | IC50 (CYP2B6; human liver microsomes 0.1 mg/mL, cocktail assay, bupropion probe, n = 3): > 50 µM | IC50 (CYP2C8): 13.6 ± 3.15 µM | Ki (CYP2C9; Ki values, CYP2C9 probe diclofenac, diclofenac 2, 5, and 10 µM): 0.587 ± 0.047 µM | Mode of inhibition, CYP2C9 probe diclofenac (CYP2C9; best fit based on AIC values): Competitive | Mode of inhibition, CYP2C9 probe tolbutamide (CYP2C9; best fit based on AIC values): Competitive | Ki (CYP2C9; tolbutamide 50, 100, and 150 µM, read-out: Ki values, CYP2C9 probe tolbutamide): 0.503 ± 0.0383 µM | residual enzyme activity, CYP3A4 (CYP3A4; [1]): 53.3 ± 4.00% | IC50 (CYP3A4; human liver microsomes 0.1 mg/mL, cocktail assay, n = 3): > 50 µM
